Experiments:
[1] = 101.3 kPa, Liquid; for viscosity: Falling or rolling sphere viscometry; for mass density: Vibrating tube method
[2] = wn = mass fraction of the nth substance listed; details: 101.3 kPa, Liquid, w1 = 1; for viscosity: Falling or rolling sphere viscometry; for mass density: Vibrating tube method

COCCO [2-methoxyethan-1-ol]
[1]
Details	mass density [kg/m3]	viscosity [mPa·s]
293.15 K	964.7	1.692
298.15 K	960.1	1.527
303.15 K	955.5	1.386
308.15 K	950.9	1.262
313.15 K	946.2	1.155
318.15 K	941.5	1.061
323.15 K	936.7	0.9781
328.15 K	932	0.905
333.15 K	927.2	0.8397
338.15 K	922.3	0.7818
343.15 K	917.4	0.7298
348.15 K	912.4	0.6834
353.15 K	907.4	0.6409

NCCO [2-aminoethan-1-ol] + COCCO
[2]
Details	mass density [kg/m3]	viscosity [mPa·s]
293.15 K	1016.7	24.23
298.15 K	1012.8	18.94
303.15 K	1008.8	15.04
308.15 K	1004.9	12.14
313.15 K	1000.9	9.938
318.15 K	996.9	8.236
323.15 K	992.9	6.907
328.15 K	988.8	5.855
333.15 K	984.8	5.011
338.15 K	980.7	4.327
343.15 K	976.6	3.766
348.15 K	972.5	3.3
353.15 K	968.4	2.908

NCCO [2-aminoethan-1-ol]
[1]
Details	mass density [kg/m3]	viscosity [mPa·s]
293.15 K	1016.7	24.23
298.15 K	1012.8	18.94
303.15 K	1008.8	15.04
308.15 K	1004.9	12.14
313.15 K	1000.9	9.938
318.15 K	996.9	8.236
323.15 K	992.9	6.907
328.15 K	988.8	5.855
333.15 K	984.8	5.011
338.15 K	980.7	4.327
343.15 K	976.6	3.766
348.15 K	972.5	3.3
353.15 K	968.4	2.908

Reference: the NIST ThermoML archive (doi:10.1016/j.jct.2018.12.028)
